{
  "source": "ChEMBL document CHEMBL1139800",
  "about": "“Design, synthesis and antitubercular activity of diarylmethylnaphthol derivatives” (Bioorg Med Chem Lett, 2007)",
  "key": {"[1]": {"system": "Mycobacterium tuberculosis", "assay": "Antitubercular activity against Mycobacterium tuberculosis H37Rv by MABA assay", "format": "functional"}, "[2]": {"system": "Mycobacterium tuberculosis", "assay": "Antitubercular activity against Mycobacterium tuberculosis H37Rv by Agar dilution method", "format": "functional"}, "[3]": {"system": "Mycobacterium tuberculosis", "assay": "Antitubercular activity against Mycobacterium tuberculosis H37Rv at 12.5 ug/mL by MABA assay", "format": "functional, organism-based"}, "Vero": {"system": "Vero", "assay": "Cytotoxicity against Vero cells after 3 days", "format": "cell-based", "conditions": "chlorocebus sabaeus, 72 h"}},
  "note": "The source made the active and inactive calls. No cut-off for these calls is given here.",
  "data": [
    {"smiles": "CCN(CC)CCOc1ccc(C(c2ccccc2)c2ccccc2)c2ccccc12", "values": [
      {"measurement": "MIC", "setting": "[1]", "value": 6.25, "unit": "µg/mL"},
      {"measurement": "MIC", "setting": "[2]", "value": 12.5, "unit": "µg/mL"}
    ]},
    {"smiles": "CCN(CC)CCOc1ccc2ccccc2c1C(c1ccccc1)c1ccc(Cl)cc1", "note": "(stereo unspecified)", "values": [
      {"measurement": "MIC", "setting": "[1]", "value": 3.12, "unit": "µg/mL"},
      {"measurement": "MIC", "setting": "[2]", "value": 6.25, "unit": "µg/mL"}
    ]},
    {"smiles": "Clc1ccc(C(c2ccccc2)c2c(OCCN3CCCCC3)ccc3ccccc23)cc1", "note": "(stereo unspecified)", "values": [
      {"measurement": "MIC", "setting": "[1]", "value": 3.12, "unit": "µg/mL"},
      {"measurement": "MIC", "setting": "[2]", "value": 6.25, "unit": "µg/mL"}
    ]},
    {"smiles": "CN(C)CCOc1ccc(C(c2ccccc2)c2ccccc2)c2ccccc12", "values": [
      {"measurement": "MIC", "setting": "[1]", "value": 12.5, "unit": "µg/mL"},
      {"measurement": "MIC", "setting": "[2]", "value": 6.25, "unit": "µg/mL"}
    ]},
    {"smiles": "CN(C)CCOc1ccc2ccccc2c1C(c1ccccc1)c1ccc(Cl)cc1", "note": "(stereo unspecified)", "values": [
      {"measurement": "MIC", "setting": "[1]", "value": 3.12, "unit": "µg/mL"},
      {"measurement": "MIC", "setting": "[2]", "value": 6.25, "unit": "µg/mL"}
    ]},
    {"smiles": "Clc1ccc(C(c2ccccc2)c2ccc(OCCN3CCCC3)c3ccccc23)cc1", "note": "(stereo unspecified)", "values": [
      {"measurement": "Activity", "setting": "[3]", "value": "inactive"},
      {"measurement": "MIC", "setting": "[2]", "value": 12.5, "unit": "µg/mL"}
    ]},
    {"smiles": "c1ccc(C(c2ccccc2)c2ccc(OCCN3CCCC3)c3ccccc23)cc1", "values": [
      {"measurement": "MIC", "setting": "[1]", "value": 6.25, "unit": "µg/mL"},
      {"measurement": "MIC", "setting": "[2]", "value": 12.5, "unit": "µg/mL"}
    ]},
    {"smiles": "CN(C)CCOc1ccc(C(c2ccccc2)c2ccc(Cl)cc2)c2ccccc12", "note": "(stereo unspecified)", "values": [
      {"measurement": "Activity", "setting": "[3]", "value": "inactive"},
      {"measurement": "MIC", "setting": "[2]", "value": "> 12.5", "unit": "µg/mL"}
    ]},
    {"smiles": "CCN(CC)CCOc1ccc(C(c2ccccc2)c2ccc(Cl)cc2)c2ccccc12", "note": "(stereo unspecified)", "values": [
      {"measurement": "MIC", "setting": "[1]", "value": 12.5, "unit": "µg/mL"},
      {"measurement": "MIC", "setting": "[2]", "value": 12.5, "unit": "µg/mL"}
    ]},
    {"smiles": "Clc1ccc(C(c2ccccc2)c2ccc(OCCN3CCCCC3)c3ccccc23)cc1", "note": "(stereo unspecified)", "values": [
      {"measurement": "Activity", "setting": "[3]", "value": "inactive"},
      {"measurement": "MIC", "setting": "[2]", "value": 12.5, "unit": "µg/mL"}
    ]},
    {"smiles": "Clc1ccc(C(c2ccccc2)c2c(OCCN3CCCCCC3)ccc3ccccc23)cc1", "note": "(stereo unspecified)", "values": [
      {"measurement": "MIC", "setting": "[1]", "value": 3.12, "unit": "µg/mL"},
      {"measurement": "MIC", "setting": "[2]", "value": 6.25, "unit": "µg/mL"}
    ]},
    {"smiles": "Fc1ccc(C(c2ccccc2)c2c(OCCN3CCCC3)ccc3ccccc23)cc1", "note": "(stereo unspecified)", "values": [
      {"measurement": "MIC", "setting": "[1]", "value": 3.12, "unit": "µg/mL"},
      {"measurement": "MIC", "setting": "[2]", "value": 6.25, "unit": "µg/mL"}
    ]},
    {"smiles": "Clc1ccc(C(c2ccccc2)c2ccc(OCCN3CCCCCC3)c3ccccc23)cc1", "note": "(stereo unspecified)", "values": [
      {"measurement": "Activity", "setting": "[3]", "value": "inactive"},
      {"measurement": "MIC", "setting": "[2]", "value": "> 12.5", "unit": "µg/mL"}
    ]},
    {"smiles": "CO[C@H]1/C=C/O[C@@]2(C)Oc3c(C)c(O)c4c(O)c(c(/C=N/N5CCN(C)CC5)c(O)c4c3C2=O)NC(=O)/C(C)=C\\C=C\\[C@H](C)[C@H](O)[C@@H](C)[C@@H](O)[C@@H](C)[C@H](OC(C)=O)[C@@H]1C", "note": "[RIFAMPIN]", "values": [
      {"measurement": "MIC", "setting": "[1]", "value": 0.2, "unit": "µg/mL"},
      {"measurement": "MIC", "setting": "[2]", "value": 0.2, "unit": "µg/mL"}
    ]},
    {"smiles": "c1ccc(C(c2ccccc2)c2ccc(OCCN3CCCCC3)c3ccccc23)cc1", "values": [
      {"measurement": "MIC", "setting": "[1]", "value": 12.5, "unit": "µg/mL"},
      {"measurement": "MIC", "setting": "[2]", "value": "> 12.5", "unit": "µg/mL"}
    ]},
    {"smiles": "c1ccc(C(c2ccccc2)c2ccc(OCCN3CCCCCC3)c3ccccc23)cc1", "values": [
      {"measurement": "MIC", "setting": "[1]", "value": 12.5, "unit": "µg/mL"},
      {"measurement": "MIC", "setting": "[2]", "value": 12.5, "unit": "µg/mL"}
    ]},
    {"smiles": "Fc1ccc(C(c2ccccc2)c2ccc(OCCN3CCCCC3)c3ccccc23)cc1", "note": "(stereo unspecified)", "values": [
      {"measurement": "MIC", "setting": "[1]", "value": 12.5, "unit": "µg/mL"},
      {"measurement": "MIC", "setting": "[2]", "value": 12.5, "unit": "µg/mL"}
    ]},
    {"smiles": "CCN(CC)CCOc1ccc(C(c2ccccc2)c2ccc(F)cc2)c2ccccc12", "note": "(stereo unspecified)", "values": [
      {"measurement": "Activity", "setting": "[3]", "value": "inactive"},
      {"measurement": "MIC", "setting": "[2]", "value": "> 12.5", "unit": "µg/mL"}
    ]},
    {"smiles": "Clc1ccc(C(c2ccccc2)c2c(OCCN3CCCC3)ccc3ccccc23)cc1", "note": "(stereo unspecified)", "values": [
      {"measurement": "MIC", "setting": "[1]", "value": 3.12, "unit": "µg/mL"},
      {"measurement": "MIC", "setting": "[2]", "value": 6.25, "unit": "µg/mL"}
    ]},
    {"smiles": "c1ccc(C(c2ccccc2)c2c(OCCN3CCCCC3)ccc3ccccc23)cc1", "values": [
      {"measurement": "MIC", "setting": "[1]", "value": 6.25, "unit": "µg/mL"},
      {"measurement": "Activity", "setting": "Vero", "value": "Toxic"},
      {"measurement": "MIC", "setting": "[2]", "value": 3.12, "unit": "µg/mL"}
    ]},
    {"smiles": "Fc1ccc(C(c2ccccc2)c2c(OCCN3CCCCC3)ccc3ccccc23)cc1", "note": "(stereo unspecified)", "values": [
      {"measurement": "MIC", "setting": "[1]", "value": 6.25, "unit": "µg/mL"},
      {"measurement": "Activity", "setting": "Vero", "value": "Toxic"},
      {"measurement": "MIC", "setting": "[2]", "value": 3.12, "unit": "µg/mL"}
    ]},
    {"smiles": "Fc1ccc(C(c2ccccc2)c2ccc(OCCN3CCCC3)c3ccccc23)cc1", "note": "(stereo unspecified)", "values": [
      {"measurement": "MIC", "setting": "[1]", "value": 6.25, "unit": "µg/mL"},
      {"measurement": "MIC", "setting": "[2]", "value": 12.5, "unit": "µg/mL"}
    ]},
    {"smiles": "CN(C)CCOc1ccc2ccccc2c1C(c1ccccc1)c1ccccc1", "values": [
      {"measurement": "MIC", "setting": "[1]", "value": 6.25, "unit": "µg/mL"},
      {"measurement": "Activity", "setting": "Vero", "value": "Toxic"},
      {"measurement": "MIC", "setting": "[2]", "value": 3.12, "unit": "µg/mL"}
    ]},
    {"smiles": "CCN(CC)CCOc1ccc2ccccc2c1C(c1ccccc1)c1ccccc1", "values": [
      {"measurement": "MIC", "setting": "[1]", "value": 6.25, "unit": "µg/mL"},
      {"measurement": "Activity", "setting": "Vero", "value": "Toxic"},
      {"measurement": "MIC", "setting": "[2]", "value": 3.12, "unit": "µg/mL"}
    ]},
    {"smiles": "CN(C)CCOc1ccc2ccccc2c1C(c1ccccc1)c1ccc(F)cc1", "note": "(stereo unspecified)", "values": [
      {"measurement": "MIC", "setting": "[1]", "value": 3.12, "unit": "µg/mL"},
      {"measurement": "MIC", "setting": "[2]", "value": 6.25, "unit": "µg/mL"}
    ]},
    {"smiles": "c1ccc(C(c2ccccc2)c2c(OCCN3CCCCCC3)ccc3ccccc23)cc1", "values": [
      {"measurement": "MIC", "setting": "[1]", "value": 6.25, "unit": "µg/mL"},
      {"measurement": "Activity", "setting": "Vero", "value": "Toxic"},
      {"measurement": "MIC", "setting": "[2]", "value": 3.12, "unit": "µg/mL"}
    ]},
    {"smiles": "CN(C)CCOc1ccc(C(c2ccccc2)c2ccc(F)cc2)c2ccccc12", "note": "(stereo unspecified)", "values": [
      {"measurement": "Activity", "setting": "[3]", "value": "inactive"},
      {"measurement": "MIC", "setting": "[2]", "value": "> 12.5", "unit": "µg/mL"}
    ]},
    {"smiles": "Fc1ccc(C(c2ccccc2)c2c(OCCN3CCCCCC3)ccc3ccccc23)cc1", "note": "(stereo unspecified)", "values": [
      {"measurement": "MIC", "setting": "[1]", "value": 6.25, "unit": "µg/mL"},
      {"measurement": "MIC", "setting": "[2]", "value": 12.5, "unit": "µg/mL"}
    ]},
    {"smiles": "CCN(CC)CCOc1ccc2ccccc2c1C(c1ccccc1)c1ccc(F)cc1", "note": "(stereo unspecified)", "values": [
      {"measurement": "MIC", "setting": "[1]", "value": 6.25, "unit": "µg/mL"},
      {"measurement": "Activity", "setting": "Vero", "value": "Toxic"},
      {"measurement": "MIC", "setting": "[2]", "value": 3.12, "unit": "µg/mL"}
    ]},
    {"smiles": "c1ccc(C(c2ccccc2)c2c(OCCN3CCCC3)ccc3ccccc23)cc1", "values": [
      {"measurement": "MIC", "setting": "[1]", "value": 6.25, "unit": "µg/mL"},
      {"measurement": "Activity", "setting": "Vero", "value": "Toxic"},
      {"measurement": "MIC", "setting": "[2]", "value": 3.12, "unit": "µg/mL"}
    ]},
    {"smiles": "Fc1ccc(C(c2ccccc2)c2ccc(OCCN3CCCCCC3)c3ccccc23)cc1", "note": "(stereo unspecified)", "values": [
      {"measurement": "MIC", "setting": "[1]", "value": 12.5, "unit": "µg/mL"},
      {"measurement": "MIC", "setting": "[2]", "value": "> 12.5", "unit": "µg/mL"}
    ]},
    {"smiles": "NNC(=O)c1ccncc1", "note": "[ISONIAZID]", "values": [
      {"measurement": "MIC", "setting": "[1]", "value": 0.025, "unit": "µg/mL"},
      {"measurement": "MIC", "setting": "[2]", "value": 0.025, "unit": "µg/mL"}
    ]}
  ]
}
